Results on 36 compounds are retold here after patent publication US9770452B2, “Quinoxaline derivatives as GPR6 modulators” (Takeda Pharmaceutical Company Limited, priority 2012, dated 2017).

The term IC50 denotes the concentration that gives 50% inhibition.

Structures can show the parent of a compound that is named as a salt.

In the first test the target is T1, GPR6 receptor (Homo sapiens, UniProt P46095).
T1 construct: expressed in transfected cells
T1 sequence (P46095 whole entry): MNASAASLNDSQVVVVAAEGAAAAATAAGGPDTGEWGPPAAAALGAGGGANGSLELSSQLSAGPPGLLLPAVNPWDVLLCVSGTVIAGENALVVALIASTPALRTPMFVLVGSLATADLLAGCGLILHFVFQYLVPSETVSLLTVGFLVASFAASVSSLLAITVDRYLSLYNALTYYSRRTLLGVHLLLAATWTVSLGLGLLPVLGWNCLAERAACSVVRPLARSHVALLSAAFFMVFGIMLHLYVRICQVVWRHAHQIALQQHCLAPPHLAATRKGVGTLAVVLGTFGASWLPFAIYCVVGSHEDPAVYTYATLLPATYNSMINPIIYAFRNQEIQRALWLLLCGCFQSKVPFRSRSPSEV
As to the kind of experiment: Inhibition of cAMP Activity of GPR6 In Vitro Assay (CHO-K1 cells, HTRF cAMP). The conditions noted are these: compounds of Compound Table 1; inhibition of constitutive cAMP activity of GPR6 expressed in CHO-K1 cells; approximate IC50; read-out: IC50. Format: cell-based. As to the method: Inhibition of cAMP Activity of GPR6 In Vitro Assay
This cell based assay measures the ability of compounds to inhibit the constitutive cAMP activity of GPR6 receptor expressed in CHO-K1 cells. CHO cells were stably expressed with GPR6 receptor, whose expression is controlled by a tetracycline inducable element. The cells were cultured in medium containing F12K, 10% FBS, 1% Penn/Strep, 200 ug/mL Hygromycin. GPR6 receptor expression was induced for 20 hrs with 1 μg/ml doxycycline (sigma D9891) in growth media. After addition of doxycycline cells were plated at a density of 250-500 cells per well in half-volume black clear bottom plates (Costar) and place in an incubator (37°, 5% C(O)2) for 20 hours prior to cAMP assays.
Culture media was removed from cells and they were washed with 50 μL of Ringer's Buffer (MgCl2 0.047 mg/mL, NaH2PO4 0.18 mg/mL, Na2HPO4 0.1 mg/mL, KCl 0.34 mg/mL, NaHC(O)3 1.26 mg/mL, D-glucose 1.8 mg/mL, NaCl 7 mg/mL; pH=7.4). Compounds suspended in DMSO were diluted in Ringer's Buffer containing 0.5% fatty acid free BSA and incubated on cells for 45 min at […] and 5% C(O)2. After incubation cells were incubated for 10 min at room temp with Eu-cAMP tracer solution from a Perkin Elmer Lance HTRF UltracAMP assay kit (TRF0264). Then ULight™-anti-cAMP solution from the Lance HTRF kit was added and incubated on a shaker at room temp for 1 hour prior to HTRF detection in a BMG PolarStar Omega.
IC50 curves were generated with a four-parameter logistic equation using GraphPad Prism 5.03.
(In general: Time-resolved FRET reads energy transfer from a long-lived donor to a nearby acceptor.)
As for “N-cyclopropyl-3-(4-(4-(methylthio)phenoxy)piperidin-1-yl)pyrido[3,4-b]pyrazin-2-amine, 2,2,2-trifluoroacetic acid salt [Cpd 600]”, the IC50 turned out to be 20 nM.
The same measure, in the same setting: in the case of `N#Cc1ccc2nc(NC3CC3)c(N3CCC(C(F)c4ccc(F)cc4F)CC3)nc2c1` (stereo not drawn) [Cpd 481] it was 24 nM; in that of “N-cyclopropyl-3-(4-((2,5-difluorophenyl)difluoromethyl)piperidin-1-yl)pyrido[3,4-b]pyrazin-2-amine [Cpd 540]”, 46 nM.
On the same count and under the same terms, to “2-(cyclopropylamino)-3-(4-(2-fluoro-4-methoxybenzyl)piperazin-1-yl)pyrido[3,4-b]pyrazine-5-carbonitrile, 2,2,2-trifluoroacetic acid salt [Cpd 613]” belongs 92 nM.
Regarding “2-(cyclopropylamino)-3-(4-(2-fluoro-4-methoxybenzyl)piperazin-1-yl)-N,N-dimethylpyrido[3,4-b]pyrazine-7-carboxamide, 2,2,2-trifluoroacetic acid salt [Cpd 614]”, the half-inhibitory concentration (IC50) stood at 66 nM.
Still for that read-out and setting: to `O=C(c1ccsc1Cl)C1CCN(c2nc3cnccc3nc2NC2CC2)CC1` [Cpd 572, (2-chlorothiophen-3-yl)(1-(2-(cyclopropylamino)pyrido[3,4-b]pyrazin-3-yl)piperidin-4-yl)methanone, hydrogen chloride salt] belongs 21 nM.
The same measure, in the same setting: in the case of `CC(C)Nc1nc2cnncc2nc1N1CCC(Oc2ccc(Cl)cc2F)CC1` [Cpd 644, 3-(4-(4-chloro-2-fluorophenoxy)piperidin-1-yl)-N-isopropylpyrazino[2,3-d]pyridazin-2-amine, 2,2,2-trifluoroacetic acid salt] it was 7 nM; in that of “3-(4-((2,4-difluorophenyl)fluoromethyl)piperidin-1-yl)-N-isopropylpyrido[3,4-b]pyrazin-2-amine, 2,2,2-trifluoroacetic acid salt [Cpd 621]”, 21 nM.
In the case of `Clc1ccc(NC2CCN(c3nc4ccccc4nc3NC3CC3)CC2)cc1` [Cpd 413, 3-(4-((4-chlorophenyl)amino)piperidin-1-yl)-N-cyclopropylquinoxalin-2-amine, 22,2,2-trifluoroacetic acid salt], the half-maximal inhibitory concentration (IC50) came to 19 nM.
Still for that read-out and setting: to `CC(C)CNc1nc2ccccc2nc1N1CCN(Cc2cc(Cl)ccc2Cl)CC1` [Cpd 110, 3-(4-(2,5-dichlorobenzyl)piperazin-1-yl)-N-isobutylquinoxalin-2-amine, 2,2,2-trifluoroacetic acid salt] belongs 6030 nM.
Still for that read-out and setting: to “3-(4-(4-chloro-2-fluorophenoxy)piperidin-1-yl)-2-(cyclopropylamino)quinoxaline-6-carbonitrile, 2,2,2-trifluoroacetic acid salt [Cpd 465]” belongs 11 nM.
With `COc1ccc(OC2CCN(c3nc4c(C(=O)N(C)C)nccc4nc3NC3CC3)CC2)c(F)c1` [Cpd 604, 2-(cyclopropylamino)-3-(4-(2-fluoro-4-methoxyphenoxy)piperidin-1-yl)-N,N-dimethylpyrido[3,4-b]pyrazine-5-carboxamide], the 50% inhibitory concentration (IC50) came out at 54 nM.
With “2-(cyclopropylamino)-3-(4-(2,5-dichloroisonicotinoyl)piperazin-1-yl)quinoxaline-6-carbonitrile [Cpd 265]”, the half-maximal inhibitory concentration (IC50) came out at 300 nM.
“3-(4-((5-chloro-2-fluorophenyl)difluoromethyl)piperidin-1-yl)-N-cyclopropyl-5-methylpyrido[3,4-b]pyrazin-2-amine [Cpd 536]”: the IC50 stood at 930 nM.
Still for that read-out and setting: to “5-chloro-1-((1-(2-(cyclopropylamino)pyrido[3,4-b]pyrazin-3-yl)piperidin-4-yl)methyl)pyridin-2(1H)-one [Cpd 532]” belongs 380 nM; to “3-(4-(3-chlorophenoxy)piperidin-1-yl)-N-cyclopropylpyrido[3,4-b]pyrazin-2-amine, 2,2,2-trifluoroacetic acid salt [Cpd 426]”, 27 nM.
For “2-(cyclopropylamino)-3-(4-(2,5-difluorobenzyl)piperazin-1-yl)quinoxaline-6-carbonitrile, 2,2,2-trifluoroacetic acid salt [Cpd 257]”, the IC50 came to 310 nM.
Still for that read-out and setting: to “(R)-(2-(cyclopropylamino)-3-(4-((2,4-difluorophenyl)fluoromethyl)piperidin-1-yl)pyrido[3,4-b]pyrazin-7-yl)(morpholino)methanone, 2,2,2-trifluoroacetic acid salt [Cpd 580]” belongs 8 nM.
“4-((1-(3-(cyclopropylamino)pyrazino[2,3-d]pyridazin-2-yl)piperidin-4-yl)oxy)-3-fluorophenol [Cpd 623]”: the IC50 is 39 nM.
Consider “(6-chloro-2,3-difluorophenyl)(1-(2-(cyclopropylamino)pyrido[3,4-b]pyrazin-3-yl)piperidin-4-yl)methanone, 2,2,2-trifluoroacetic acid salt [Cpd 569]”, for which the half-inhibitory concentration (IC50) was determined as 62 nM.
The same measure, in the same setting: to “3-(4-(5-(tert-butyl)-2-methoxybenzyl)piperazin-1-yl)-N-cyclopropylpyrido[3,4-b]pyrazin-2-amine, 2,2,2-trifluoroacetic acid salt [Cpd 306]” belongs 380 nM.
Consider “(S)—N-(sec-butyl)-3-(4-(2-fluoro-4-methoxyphenoxy)piperidin-1-yl)pyrazino[2,3-d]pyridazin-2-amine, 2,2,2-trifluoroacetic acid salt [Cpd 637]”, for which the IC50 worked out at 26 nM.
For the compound “N-cyclopropyl-2-(4-(2,4-difluorobenzyl)piperidin-1-yl)pyrido[3,4-b]pyrazin-3-amine, 2,2,2-trifluoroacetic acid salt [Cpd 427]”, the IC50 was found to be 78 nM.
On the same count and under the same terms, to `O=C(c1ccc(F)c(Br)c1)N1CCN(c2nc3ccccc3nc2NC2CC2)CC1` [Cpd 89, (3-bromo-4-fluorophenyl)(4-(3-(cyclopropylamino)quinoxalin-2-yl)piperazin-1-yl)methanone, 2,2,2-trifluoroacetic acid salt] belongs 4780 nM; to `N#Cc1ccc(C(=O)N2CCN(c3nc4ccccc4nc3NC3CC3)CC2)cc1` [Cpd 75, 4-(4-(3-(cyclopropylamino)quinoxalin-2-yl)piperazine-1-carbonyl)benzonitrile, 2,2,2-trifluoroacetic acid salt], 21800 nM.
Still for that read-out and setting: to “3-(4-(3-chloro-4-fluorobenzyl)piperazin-1-yl)-N-cyclopropylpyrido[3,4-b]pyrazin-2-amine, 2,2,2-trifluoroacetic acid salt [Cpd 315]” belongs 50 nM.
Same read-out and setting: to “3-(4-(2,4-difluorophenoxy)piperidin-1-yl)-N-isopropylpyrazino[2,3-d]pyridazin-2-amine, 2,2,2-trifluoroacetic acid salt [Cpd 632]” belongs 28 nM; to “3-(4-((4-chloro-2-oxopyridin-1(2H)-yl)methyl)piperidin-1-yl)-2-(cyclopropylamino)quinoxaline-6-carbonitrile [Cpd 526]”, 670 nM.
As for “3-(4-((4-bromophenyl)sulfonyl)piperazin-1-yl)-2-(cyclopropylamino)quinoxaline-6-carbonitrile [Cpd 251]”, the half-inhibitory concentration (IC50) came out at 4340 nM.
Still for that read-out and setting: to “(1-(2-(cyclopropylamino)pyrido[3,4-b]pyrazin-3-yl)piperidin-4-yl)(thiophen-2-yl)methanone, 2,2,2-trifluoroacetic acid salt [Cpd 573]” belongs 2800 nM.
On the same count and under the same terms, to “N-cyclopropyl-3-(4-((4-(trifluoromethyl)phenyl)sulfonyl)piperazin-1-yl)pyrido[3,4-b]pyrazin-2-amine, 2,2,2-trifluoroacetic acid salt [Cpd 302]” belongs 340 nM; to “(1-(2-(cyclopropylamino)pyrido[3,4-b]pyrazin-3-yl)piperidin-4-yl)(o-tolyl)methanone, 2,2,2-trifluoroacetic acid salt [Cpd 565]”, 15400 nM; to “(R)-3-(4-((2,4-difluorophenyl)fluoromethyl)piperidin-1-yl)-N-isopropylpyrazino[2,3-d]pyridazin-2-amine, 2,2,2-trifluoroacetic acid salt [Cpd 640]”, 72 nM.
Take “3-(4-((4-bromo-2-fluorophenyl)sulfonyl)piperazin-1-yl)-2-(cyclopropylamino)quinoxaline-6-carbonitrile, 2,2,2-trifluoroacetic acid salt [Cpd 285]”: the IC50 was 1360 nM.
Same read-out and setting: in the case of “(2-bromophenyl)(1-(2-(cyclopropylamino)pyrido[3,4-b]pyrazin-3-yl)piperidin-4-yl)methanone, 2,2,2-trifluoroacetic acid salt [Cpd 585]” it was 6040 nM.

The same test, now with this note: compounds of Compound Table 2; inhibition of constitutive cAMP activity of GPR6 expressed in CHO-K1 cells; approximate IC50; read-out: IC50.
Take `CC1CN(Cc2cc(Cl)ccc2Cl)CCN1c1nc2ccccc2nc1NC1CC1` (stereo not drawn) [Compound Table 2: Cpd 7, N-cyclopropyl-3-(4-(2,5-dichlorobenzyl)-2-methylpiperazin-1-yl)quinoxalin-2-amine]: the 50% inhibitory concentration (IC50) turned out to be 6640 nM.
